Measurements as given in patent US20040091985A1, “NAD phosphite oxidoreductase, a novel catalyst from bacteria for regeneration of NAD(P)H” (priority 2002, published 2004).
Where “and” joins values, the source holds several entries; their conditions need not be identical. Equal values may be shown once. Entries after “also recorded” stand apart in the source; their conditions may differ.

Experiments:
[1] = biological target: T1, PtxD (Stutzerimonas stutzeri, UniProt O69054); assay type: biochemical, Pseudomonas stutzeri WM88; set-up: made in house
T1 sequence (O69054 1-336): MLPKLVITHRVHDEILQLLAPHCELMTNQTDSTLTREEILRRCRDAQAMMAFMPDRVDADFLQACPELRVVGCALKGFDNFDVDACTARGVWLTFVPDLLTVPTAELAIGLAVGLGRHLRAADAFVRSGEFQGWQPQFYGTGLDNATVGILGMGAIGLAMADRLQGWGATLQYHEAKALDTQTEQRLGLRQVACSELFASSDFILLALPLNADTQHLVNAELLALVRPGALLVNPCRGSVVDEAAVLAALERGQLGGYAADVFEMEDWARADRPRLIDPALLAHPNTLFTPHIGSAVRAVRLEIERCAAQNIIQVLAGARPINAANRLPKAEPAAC

[2] = biological target: T1, PtxD; assay type: biochemical, Pseudomonas stutzeri WM88; set-up: made in house; remark: listed apart in the source
[3] = biological target: T1, PtxD; assay type: biochemical, Pseudomonas stutzeri WM88; set-up: made in house; remark: listed apart in the source
[4] = biological target: T1, PtxD; assay: Initial rate studies of PtxD with NAD and phosphite, kinetic model fitting
[5] = biological target: T1, PtxD; assay type: biochemical, Pseudomonas stutzeri WM88; set-up: made in house; remark: listed apart in the source
[6] = biological target: T1, PtxD; assay: Initial rate studies of PtxD in the presence of products (NADH, phosphate) and dead end inhibitor sulfite; assay type: biochemical, Pseudomonas stutzeri WM88; set-up: made in house
[7] = biological target: PtxD/LLDH (Stutzerimonas stutzeri, UniProt O69054); assay type: biochemical
[8] = biological target: FDH; details: read-out: Ki, inhibition of FDH; cited from earlier work
[9] = biological target: PtxD (Stutzerimonas stutzeri, UniProt O69054); assay type: biochemical
[10] = system: PtxD/HLADH; assay type: biochemical

With `O=NO` [Nitrite] the “inhibitory activity on PtxD, in words” value [1] was “moderately inhibited”.
With `O=C(O)O` [bicarbonate] the “reduction of potential substrate by PtxD with NADH (reverse direction)” value (“reduction of potential substrate by PtxD” for short) [2] was “unable to catalyze the reduction”.
With `O=C(O)CN(CCOCCOCCN(CC(=O)O)CC(=O)O)CC(=O)O` [EGTA] the “effect on enzyme activity” value [3] was “no effect”.
With `Nc1ncnc2c1ncn2[C@@H]1O[C@H](COP(=O)(O)OP(=O)(O)OC[C@H]2OC(O)[C@H](O)[C@@H]2O)[C@@H](O)[C@H]1O` (stereo partly shown) [ADPR, ADP-ribose] the “inhibitory activity on PtxD, in words” value [1] was “weak enzyme inhibitors”.
In the case of Phosphite, the Km [4] is reported as 53.1 µM and ~50 µM and the “Activity, substrates” value [5] is reported as 100.00%.
For `CC(C)CC(O)C(=O)O` (racemic) [DL-Hydroxyisocaproate], the “inhibitory activity on PtxD, in words” value [1] was “moderately inhibited”.
In the case of `NC(=O)c1ccc[n+]([C@@H]2O[C@H](COP(=O)([O-])OP(=O)(O)OC[C@H]3O[C@@H](n4cnc5c(N)ncnc54)[C@H](O)[C@@H]3O)[C@@H](O)[C@H]2O)c1` [NAD], the Ki ([6]; Ki, inhibition of PtxD) is reported as 223 µM, the “TN (NAD^+)” value [7] is reported as 12 and the “TTN (NAD^+)” value [7] is reported as 2000. The Ki [8] was 150 µM, the “total turnover numbers of NAD^+” value [9] was “up to 2000” and the “Activity, cofactors” value [5] was 100.00%. The “TN (NAD^+)” value [10] was 123 and the “TTN (NAD^+)” value [10] was 2000.
For Arsenite, the “inhibitory activity on PtxD, in words” value [1] was “moderately inhibited”.
In the case of `O=C(O)CN(CCN(CC(=O)O)CC(=O)O)CC(=O)O` [EDTA], the “effect on enzyme activity” value [3] is reported as “no effect”.
In the case of `Nc1ncnc2c1ncn2[C@@H]1O[C@H](COP(=O)(O)OP(=O)(O)O)[C@@H](O)[C@H]1O` [ADP], the “inhibitory activity on PtxD, in words” value [1] is reported as “weak enzyme inhibitors”.
With `NCCP(=O)(O)O` [Aminoethylphosphonate] the “reduction of potential substrate by PtxD” value [2] was “unable to catalyze the reduction”.
With `NC(=O)c1ccc[n+]([C@@H]2O[C@H](COP(=O)([O-])OP(=O)(O)OC[C@H]3O[C@@H](n4cnc5c(N)ncnc54)[C@H](OP(=O)(O)O)[C@@H]3O)[C@@H](O)[C@H]2O)c1` [NADP] the “Activity, cofactors” value [5] was 3.4% and 7.1% and 0.4% and 1.1%, the “ability to substitute for NAD” value [5] was “able to substitute for NAD; also recorded: can substitute for NAD” and the “inhibitory activity on PtxD, in words” value [1] was “weak enzyme inhibitors”.
In the case of `O=S(O)O` [Sulfite], the Ki ([6]; Kii) is reported as 4.97 µM and 1.15 µM, the Ki ([6]; Kis with respect to NAD) is reported as 10.8 ± 0.1 µM and the Ki ([6]; Kis with respect to phosphite) is reported as 16.1 ± 0.1 µM. The “inhibitory activity on PtxD, in words” value [1] was “strong inhibitor”.
For `O=C(O)C(=O)CO` [hydroxypyruvate], the “reduction of substrate by PtxD with NADH” value [2] was 0.14 units/mg.
With NADH the “type of inhibition of PtxD” value [6] was “competitive inhibitor”.
For `[Cl-].[Na+]` [NaCl], the activity left [3] was 37%.
In the case of `O=C(O)[C@H](O)CO` [D-Glycerate], the “inhibitory activity on PtxD, in words” value [1] is reported as “moderately inhibited”.
With `O=C(O)C(O)CO` (stereo not shown) [glycerate] the “reduction of potential substrate by PtxD” value [2] was “unable to catalyze the reduction”.
With `Nc1ncnc2c1ncn2[C@@H]1O[C@H](COP(=O)(O)O)[C@@H](O)[C@H]1O` [AMP] the “inhibitory activity on PtxD, in words” value [1] was “does not inhibit”.
With arsenate the “reduction of potential substrate by PtxD” value [2] was “unable to catalyze the reduction”.
For `Nc1ncnc2c1ncn2[C@@H]1O[C@H](COP(=O)(O)OP(=O)(O)OP(=O)(O)O)[C@@H](O)[C@H]1O` [ATP], the “inhibitory activity on PtxD, in words” value [1] was “weak enzyme inhibitors”.
